Results taken from PMC8222254, “Self-assembly of an anion receptor with metal-dependent kinase inhibition and potent in vitro anti-cancer properties” (Nature Communications, 2021).
Values joined by “and” are separate entries in the source; they are usually repeats but may differ in a detail not shown here. Identical values can stand only once.

Assays:
Test in all cases: Kinase inhibition screen, cell-free 33P ATP assay at 10 μM
Type in all cases: biochemical
[1] = biological target: 140 purified human kinases (Homo sapiens, UniProt Q9P289)
Sequence of 140 purified human kinases (Homo sapiens, UniProt Q9P289) (Q9P289 whole entry): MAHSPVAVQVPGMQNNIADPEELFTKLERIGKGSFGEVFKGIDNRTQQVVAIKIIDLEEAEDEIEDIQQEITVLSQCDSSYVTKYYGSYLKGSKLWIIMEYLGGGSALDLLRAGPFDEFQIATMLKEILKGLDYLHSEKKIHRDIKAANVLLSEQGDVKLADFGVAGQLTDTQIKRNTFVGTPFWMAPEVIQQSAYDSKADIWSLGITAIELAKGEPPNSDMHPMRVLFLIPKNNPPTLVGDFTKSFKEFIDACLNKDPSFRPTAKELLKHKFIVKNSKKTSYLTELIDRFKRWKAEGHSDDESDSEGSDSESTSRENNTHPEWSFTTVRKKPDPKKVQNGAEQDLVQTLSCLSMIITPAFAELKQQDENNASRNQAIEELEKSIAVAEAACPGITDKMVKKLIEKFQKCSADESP
Method in brief: (§1)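 Radiometric ^33P ATP cell-free format with purified enzymes; both complexes run at 10 μM in duplicate, results plotted on a kinome map via HGNC symbols.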

[2] = biological target: 140 purified human kinases (Homo sapiens, UniProt Q16816); settings: PHK
Sequence of 140 purified human kinases (Homo sapiens, UniProt Q16816) (Q16816 whole entry): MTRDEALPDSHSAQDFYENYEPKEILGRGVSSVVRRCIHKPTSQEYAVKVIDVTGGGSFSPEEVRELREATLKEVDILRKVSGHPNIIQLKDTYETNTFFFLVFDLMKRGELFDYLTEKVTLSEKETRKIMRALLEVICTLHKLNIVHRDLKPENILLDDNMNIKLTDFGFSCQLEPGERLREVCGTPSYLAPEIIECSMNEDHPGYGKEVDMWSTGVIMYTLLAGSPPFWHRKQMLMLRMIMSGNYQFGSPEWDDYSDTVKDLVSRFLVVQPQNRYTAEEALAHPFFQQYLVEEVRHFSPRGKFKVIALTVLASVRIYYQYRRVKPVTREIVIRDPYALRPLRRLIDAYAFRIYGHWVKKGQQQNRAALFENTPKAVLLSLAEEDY
Method in brief: as §1

[3] = biological target: T1, 140 purified human kinases (Homo sapiens, UniProt O14965); settings: Aurora A
T1 sequence (O14965 1-403): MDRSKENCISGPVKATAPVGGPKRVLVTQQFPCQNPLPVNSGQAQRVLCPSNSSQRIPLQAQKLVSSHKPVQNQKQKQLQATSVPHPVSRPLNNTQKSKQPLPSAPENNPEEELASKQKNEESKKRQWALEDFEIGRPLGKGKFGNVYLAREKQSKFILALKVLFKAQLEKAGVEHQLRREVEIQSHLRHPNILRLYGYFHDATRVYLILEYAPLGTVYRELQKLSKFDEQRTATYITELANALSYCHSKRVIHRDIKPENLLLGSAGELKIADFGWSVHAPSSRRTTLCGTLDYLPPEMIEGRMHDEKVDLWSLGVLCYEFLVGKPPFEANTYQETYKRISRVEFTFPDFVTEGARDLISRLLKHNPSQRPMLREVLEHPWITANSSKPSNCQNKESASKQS
Method in brief: as §1

[4] = biological target: 140 purified human kinases (Homo sapiens, UniProt P05129); settings: PKCγ
Method in brief: as §1

[5] = biological target: 140 purified human kinases (Homo sapiens, UniProt P31751); settings: PKBb
Sequence of 140 purified human kinases (Homo sapiens, UniProt P31751) (P31751 whole entry): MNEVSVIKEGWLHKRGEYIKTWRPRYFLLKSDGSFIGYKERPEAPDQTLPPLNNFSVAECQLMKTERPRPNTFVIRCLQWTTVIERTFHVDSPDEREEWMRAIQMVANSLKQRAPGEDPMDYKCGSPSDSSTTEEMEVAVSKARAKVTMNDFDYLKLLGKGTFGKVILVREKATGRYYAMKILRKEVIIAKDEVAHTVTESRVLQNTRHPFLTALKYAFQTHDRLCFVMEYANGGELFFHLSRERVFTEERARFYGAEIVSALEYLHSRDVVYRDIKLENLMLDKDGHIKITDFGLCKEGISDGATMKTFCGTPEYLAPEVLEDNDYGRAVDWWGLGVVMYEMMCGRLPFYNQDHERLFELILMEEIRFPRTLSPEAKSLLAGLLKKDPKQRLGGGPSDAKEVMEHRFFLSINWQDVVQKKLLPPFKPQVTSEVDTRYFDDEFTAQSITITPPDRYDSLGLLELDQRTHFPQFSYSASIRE
Method in brief: as §1

[6] = biological target: T2, 140 purified human kinases (Homo sapiens, UniProt Q05513); settings: PKCz; for % Activity inhibition Mean / % Activity inhibition Run 1 / % Activity inhibition Run 2 / % Activity remaining Run 1 / % Activity remaining Run 2: 10 µM
T2 sequence (Q05513 1-592): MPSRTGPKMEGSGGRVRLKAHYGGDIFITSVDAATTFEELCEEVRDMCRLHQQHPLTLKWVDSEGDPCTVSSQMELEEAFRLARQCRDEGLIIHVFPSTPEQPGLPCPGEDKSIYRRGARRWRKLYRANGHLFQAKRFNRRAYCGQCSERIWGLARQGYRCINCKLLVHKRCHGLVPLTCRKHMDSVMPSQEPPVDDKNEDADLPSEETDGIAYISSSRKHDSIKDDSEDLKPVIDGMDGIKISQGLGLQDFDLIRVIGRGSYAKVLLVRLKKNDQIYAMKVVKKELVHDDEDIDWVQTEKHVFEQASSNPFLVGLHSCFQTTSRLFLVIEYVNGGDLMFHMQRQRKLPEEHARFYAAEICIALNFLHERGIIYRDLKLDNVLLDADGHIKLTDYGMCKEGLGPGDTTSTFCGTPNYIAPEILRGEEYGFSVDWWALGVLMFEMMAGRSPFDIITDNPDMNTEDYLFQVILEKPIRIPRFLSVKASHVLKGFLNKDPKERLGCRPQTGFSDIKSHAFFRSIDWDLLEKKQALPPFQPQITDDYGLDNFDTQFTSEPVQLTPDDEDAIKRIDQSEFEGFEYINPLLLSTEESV
Method in brief: as §1

With `CC(=O)[O-].CC(=O)[O-].CC(=O)[O-].CC(=O)[O-].CC(=O)[O-].CC(=O)[O-].[Zn+2].[Zn+2].[Zn+2].c1ccc(-c2csc(NCCN(CCNc3nc(-c4ccccn4)cs3)CCNc3nc(-c4ccccn4)cs3)n2)nc1.c1ccc(-c2csc(NCCN(CCNc3nc(-c4ccccn4)cs3)CCNc3nc(-c4ccccn4)cs3)n2)nc1` [[L2Zn3]6+] the “% Inhibition, Mean” value ([1]; MST4) was 23%, the “% Inhibition, Run 1 / Run 2” value ([1]; MST4) was 26% and 19% and the mean % activity ([1]; MST4) was 77%. The “% activity” value ([1]; MST4, duplicate runs) was 74% and 81%, the “% Inhibition, Mean” value [2] was 64% and the mean % activity [2] was 36%. The “% activity” value ([2]; duplicate runs) was 32% and 39%, the “% Inhibition, Mean” value [3] was 83% and the “% Inhibition, Run 1 / Run 2” value [3] was 84% and 83%. For the same molecule, the mean % activity [3] was 17%, the “% Activity inhibition Mean” value ([3]; 10 µM) was 83.5% and the “% Activity inhibition Run 1” value ([3]; 10 µM) was 84%. For the same molecule, the “% Activity inhibition Run 2” value ([3]; 10 µM) was 83%, the “% Activity remaining Run 1” value ([3]; 10 µM) was 16% and the “% Activity remaining Run 2” value ([3]; 10 µM) was 17%. The “% activity” value ([3]; duplicate runs) was 16% and 17%, the “% Inhibition, Mean” value [4] was 32% and the “% Inhibition, Run 1 / Run 2” value [4] was 36% and 27%. For the same molecule, the mean % activity [4] was 68%, the “% activity” value ([4]; duplicate runs) was 64% and 73% and the “% Inhibition, Mean” value [5] was 65%. For the same molecule, the “% Inhibition, Run 1 / Run 2” value [5] was 76% and 55%, the mean % activity [5] was 35% and the “% activity” value ([5]; duplicate runs) was 24% and 45%. For the same molecule, the “% Inhibition, Mean” value [6] was 88%, the “% Inhibition, Run 1 / Run 2” value [6] was 89% and 87% and the mean % activity [6] was 12%. The “% Activity inhibition Mean” value [6] was 88.0%, the “% Activity inhibition Run 1” value [6] was 89% and the “% Activity inhibition Run 2” value [6] was 87%. The “% Activity remaining Run 1” value [6] was 11%, the “% Activity remaining Run 2” value [6] was 13% and the “% activity” value ([6]; duplicate runs) was 11% and 13%.
`[Cu+2].[Cu+2].[Cu+2].c1ccc(-c2csc(NCCN(CCNc3nc(-c4ccccn4)cs3)CCNc3nc(-c4ccccn4)cs3)n2)nc1.c1ccc(-c2csc(NCCN(CCNc3nc(-c4ccccn4)cs3)CCNc3nc(-c4ccccn4)cs3)n2)nc1` [[L2Cu3]6+] was tested, and the “% Inhibition Run 1” value ([1]; MST4) was 74.5%, the “% Inhibition Run 2” value ([1]; MST4) was 70.2% and the “% Inhibition, Mean” value ([1]; MST4) was 72%. The mean % activity ([1]; MST4) was 28%, the “% activity” value ([1]; MST4, Run 1) was 25.5% and the “% activity” value ([1]; MST4, Run 2) was 29.8%. For the same molecule, the “% Inhibition Run 1” value [2] was 59.9%, the “% Inhibition Run 2” value [2] was 49.3% and the “% Inhibition, Mean” value [2] was 55%. The mean % activity [2] was 45%, the “% Inhibition Run 1” value [3] was 30.9% and the “% Inhibition Run 2” value [3] was 28.1%. For the same molecule, the “% Inhibition, Mean” value [3] was 30%, the mean % activity [3] was 71% and the “% activity” value ([3]; Run 1) was 69.1%. The “% activity” value ([3]; Run 2) was 71.9%, the “% Inhibition Run 1” value [4] was 58.1% and the “% Inhibition Run 2” value [4] was 72%. For the same molecule, the “% Inhibition, Mean” value [4] was 65%, the mean % activity [4] was 35% and the “% activity” value ([4]; Run 1) was 41.9%. The “% activity” value ([4]; Run 2) was 28%, the “% Inhibition Run 1” value [5] was 91.7% and the “% Inhibition Run 2” value [5] was 93.5%. The “% Inhibition, Mean” value [5] was 93%, the mean % activity [5] was 7.4% and the “% activity” value ([5]; Run 1) was 8.3%. For the same molecule, the “% activity” value ([5]; Run 2) was 6.5%, the “% Activity inhibition Mean” value ([5]; 10 µM) was 92.6% and the “% Activity inhibition Run 1” value ([5]; 10 µM) was 91.7%. The “% Activity inhibition Run 2” value ([5]; 10 µM) was 93.5%, the “% Activity remaining Run 1” value ([5]; 10 µM) was 8.30% and the “% Activity remaining Run 2” value ([5]; 10 µM) was 6.50%. The “% Inhibition Run 1” value [6] was 92.5%, the “% Inhibition Run 2” value [6] was 95.1% and the “% Inhibition, Mean” value [6] was 94%. The mean % activity [6] was 6%, the “% activity” value ([6]; Run 1) was 7.5% and the “% activity” value ([6]; Run 2) was 4.9%. For the same molecule, the “% Activity inhibition Mean” value [6] was 93.8%, the “% Activity inhibition Run 1” value [6] was 92.5% and the “% Activity inhibition Run 2” value [6] was 95.1%. For the same molecule, the “% Activity remaining Run 1” value [6] was 7.50% and the “% Activity remaining Run 2” value [6] was 4.90%.
